Results reported in patent US7868014B2, “1-(hetero)aryl-3-amino-pyrrolidine derivatives for use as mGluR3 antagonists” (Eli Lilly and Company, priority 2004, dated 2011).
pIC50: −log10 of the molar value. Counter-ions that a name gives are not always drawn.

biological target: T1, human mGluR3 (Homo sapiens, UniProt Q14832); assay: Antagonism of glutamate-induced increase in intracellular calcium (FLIPR) in mGluR3-expressing AV12 cells; format: cell-based; details: antagonism of 50 μM glutamate-induced calcium response, AV12 cells expressing human mGluR3 and Gα15, Fluo-3AM
T1 construct: expressed in transfected cells; host or cells: AV12 cells (adenovirus-transformed Syrian hamster cell line) stably expressing RGT and GLT, co-transfected with Galpha15
T1 sequence (Q14832 23-879): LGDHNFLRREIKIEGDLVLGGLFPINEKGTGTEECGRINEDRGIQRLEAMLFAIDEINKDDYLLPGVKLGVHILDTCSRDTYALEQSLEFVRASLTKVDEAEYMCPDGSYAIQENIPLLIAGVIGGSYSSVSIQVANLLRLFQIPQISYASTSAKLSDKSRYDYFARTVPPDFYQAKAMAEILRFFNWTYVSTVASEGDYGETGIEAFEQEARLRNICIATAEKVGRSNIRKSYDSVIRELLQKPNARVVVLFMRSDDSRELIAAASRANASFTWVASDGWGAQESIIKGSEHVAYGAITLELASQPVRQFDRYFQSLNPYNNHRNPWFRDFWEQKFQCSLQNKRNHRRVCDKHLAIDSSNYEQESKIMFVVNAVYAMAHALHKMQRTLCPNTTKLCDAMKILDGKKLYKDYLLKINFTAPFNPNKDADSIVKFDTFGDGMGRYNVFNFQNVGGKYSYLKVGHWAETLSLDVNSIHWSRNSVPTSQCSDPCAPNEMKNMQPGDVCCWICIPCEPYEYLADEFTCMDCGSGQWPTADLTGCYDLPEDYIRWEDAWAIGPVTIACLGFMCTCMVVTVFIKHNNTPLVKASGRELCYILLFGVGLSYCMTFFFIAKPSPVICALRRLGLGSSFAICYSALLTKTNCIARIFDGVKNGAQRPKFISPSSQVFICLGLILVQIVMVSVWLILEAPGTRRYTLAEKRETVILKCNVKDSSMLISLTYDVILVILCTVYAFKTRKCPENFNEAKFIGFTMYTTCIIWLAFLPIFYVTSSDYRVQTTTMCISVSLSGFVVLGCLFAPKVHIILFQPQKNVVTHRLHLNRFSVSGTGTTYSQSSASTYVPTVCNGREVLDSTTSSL
Procedure: Antagonism of Glutamate-Induced Increase in Intracellular Calcium with a mGluRs Expressing Cell Line
Introduce human mGluR3 and the promiscuous G-protein, Galpha15 (Gα15) into AV12 cells (an adenovirus-transformed Syrian hamster cell line) that stably express RGT (Rat Glutamate Transporter) and GLT (Glutamate Like Transporter). Maintain the expression of these four exogenous genes by culturing the cells in DMEM (Gibco, 11960-051) supplemented with 5% dialyzed fetal bovine serum, 2 mM glutamine, 1 mM sodium pyruvate, 10 mM HEPES, 100 μg/mL G418, 1 μg/mL puromycin, 1 μg/mL blastocidin, and 100 μg/mL zeocin. Passage confluent cultures weekly. The expression of Gα15 allows the change of the signaling pathway of the mGlu3 receptor to one that can be easily monitored through the release of intracellular calcium before and after the addition of drugs on a Fluorometric Imaging Plate Reader (i.e. FLIPR, Molecular Devices). Use the following buffers throughout as the Assay Buffer: HBSS (BioWhittaker, 10-527F) supplemented with 20 mM HEPES (Biowhittaker, 17-737E) at pH 7.4. Prepare a stock solution of 4 mM Fluo-3AM (Molecular Probes, F-1241), a calcium sensitive dye by adding 2.21 mL of 20% pluronate in DMSO to a vial containing 10 mg of Fluo-3AM. Sonicate the solution for 30 minutes to facilitate solubilization of the Fluo-3AM and then store at −20° C. Prepare the working solution of 8 μM Fluo-3AM by diluting the stock Fluo-3AM (4 mM) 500-fold into Assay Buffer. Harvest cells 24 h prior to assay using Hank's based cell dissociation solution (Specialty Media, a division of Cell & Molecular Technologies, S-004-B) and plate at a density of 50,000 cells per well in a 96-well poly-D-lysine treated black walled, clear bottom plate (Becton Dickinson, 356640). Incubate cells with 8 μM Fluo-3AM (50 μL per well) for 2 hours at 25° C. Following the dye-loading of the cells, remove the 8 μM Fluo-3AM and replace with Assay Buffer pre-warmed to 37° C. (50 μL per well). Ready the cells for assay on the FLIPR. Set the stage of the FLIPR to 34.5° C. prior to initiation of the assay. Perform a two addition FLIPR assay. Pre-warm the reagents for both additions (compounds and glutamate) to 37° C. prior to initiation of the assay. Add the test compound to the cell plate (50 μL per well) after taking an initial fluorescent read of the cell plate for 10 seconds. Test compounds in a 10 point concentration response curve starting at a final concentration on the cells of 12.5 μM with 3-fold dilutions in Assay Buffer/1.25% DMSO. Collect data every second for the first 30 seconds and then every 3 seconds until the second addition made at 2 minutes. Perform the second addition of 100 μM glutamate in Assay Buffer (100 μL per well for a final glutamate concentration of 50 μM on the cells) 2 minutes after the addition of compound. Collect the second addition data every second for 30 seconds and then every 3 seconds until the end of the run at total time of 3.25 minutes. Measure the response as maximal peak height in Relative Fluorescent Units (RFUs). Define the assay window as the maximal response obtained by 50 μM glutamate minus the response obtained by buffer alone. Express the results as a percent of the assay window.

Row | Structure (SMILES) | pIC50
1 | Clc1cnc(N2CC[C@H](NCc3ccc(Cl)cc3Cl)C2)nc1 [Example 134, (S)-[1-(5-Chloropyrimidin-2-yl)-pyrrolidin-3-yl]-(2,4-dichlorobenzyl)-amine] | 7.11
2 | O=C1CN(c2ncc(Br)cn2)CC1NCc1ccc(Cl)cc1Cl (centres unmarked) [Example 121, 1-(5-Bromopyrimidin-2-yl)-4-(2,4-dichlorobenzylamino)-pyrrolidin-3-one] | 5.77
3 | O=[N+]([O-])c1ccc(N2CC[C@H](NCc3ccc(Cl)cc3Cl)C2)nc1 [Example 1, (S)-(2,4-Dichlorobenzyl)-[1-(5-nitropyridin-2-yl)-pyrrolidin-3-yl]-amine] | 6.72
4 | N#Cc1cnc(N2CC[C@H](NCc3ccc(Cl)cc3Cl)C2)nc1 [Example 123, (S)-2-[3-(2,4-Dichlorobenzylamino)-pyrrolidin-1-yl]-pyrimidine-5-carbonitrile] | 5.93
5 | C#Cc1ccc(N2CC[C@H](NCc3ccc(Cl)cc3Cl)C2)nc1 [Example 87, (S)-(2,4-Dichlorobenzyl)-[1-(5-ethynylpyridin-2-yl)-pyrrolidin-3-yl]-amine] | 6.84
6 | FC(F)(F)c1ccc(CN[C@H]2CCN(c3ncc(Br)cn3)C2)c(Cl)c1 [Example 112, (3S)-[1-(5-Bromopyrimidin-2-yl)-pyrrolidin-3-yl]-(2-chloro-4-trifluoromethylbenzyl)-amine] | 5.78
7 | Fc1ccc(N2CC[C@H](NCc3ccccc3I)C2)cn1 [Example 59, (S)-[1-(6-Fluoropyridin-3-yl)-pyrrolidin-3-yl]-(2-iodobenzyl)-amine hydrochloride] | 5.24
8 | Clc1ccc(CN[C@H]2CCN(c3ccc(I)cn3)C2)c(Cl)c1 [Example 23, (S)-(2,4-Dichlorobenzyl)-[1-(5-iodopyridin-2-yl)-pyrrolidin-3-yl]-amine hydrochloride] | 6.22
9 | Clc1ccc(CN[C@H]2CCN(c3ccc(-c4ccccc4)cn3)C2)c(Cl)c1 [Example 108, (S)-(2,4-Dichlorobenzyl)-[1-(5-phenylpyridin-2-yl)-pyrrolidin-3-yl]-amine] | 5.64
10 | CC(=O)c1ccc(N2CC[C@H](NCc3ccc(Cl)cc3Cl)C2)s1 [Example 6, (S)-1-{5-[3-(2,4-Dichlorobenzylamino)-pyrrolidin-1-yl]-thiophen-2-yl}-ethanone] | 5.41
11 | FC1CN(c2ncc(Br)cn2)CC1NCc1ccc(Cl)cc1Cl (centres unmarked) [Example 101, [1-(5 -Bromopyrimidin-2-yl)-4-fluoropyrrolidin-3-yl]-(2,4-dichlorobenzyl)-amine hydrochloride] | 5.31
12 | Clc1ccc(CN[C@H]2CCN(c3ncc(Br)cn3)C2)c(Cl)c1 [Example 28, (S)-[1-(5-Bromopyrimidin-2-yl)-pyrrolidin-3-yl]-(2,4-dichlorobenzyl)-amine] | 6.47

tested on: male Sprague-Dawley rats; assay: Rat dural plasma protein extravasation (PPE) model; format: in vivo; details: i.v. (tail-vein injection), 60 min before trigeminal ganglion stimulation; dose that gives an extravasation ratio of approximately 1
Procedure: Rat Dural Plasma Protein Extravasation (PPE) Model
Prepare 100 μg/ml stock solution of test compound in a DMSO/saline (20%/80% v/v) solution and make subsequent dilutions with saline. Dose male Sprague-Dawley rats from Harlan Laboratories (250-350 g) with test compound or saline vehicle by oral gavage (2 mL/kg) or intravenous tail-vein injection (1 mL/kg) 45 minutes prior to administration of anesthesia and placement in a stereotaxic frame for implantation of stimulating electrodes. The rats dosed via the oral route are fasted overnight prior to dosing. Fifteen minutes prior to trigeminal ganglion stimulation, the rats are anesthetized with Nembutal (60 mg/kg, ip.) and placed in a stereotaxic frame (David Kopf Instruments) with the incisor bar set at −2.5 mm. […]
A fluorescence microscope (Zeiss) equipped with a grating monochromator and a spectrophotometer is used to quantify the amount of FITC-BSA dye in each dural sample. […] This facilitates the computer-controlled movement of the stage, with fluorescence measurements at 25 points (500 μm steps) on each dural sample. […] The extravasation ratio (i.e. the ratio of the amount of extravasation in the dura from the stimulated side compared to the unstimulated side) is calculated. […]

Row | Structure (SMILES) | ID100 (μg/mL) i.v. [µg/mL]
13 | Clc1ccc(CN[C@H]2CCN(c3ncc(Br)cn3)C2)c(Cl)c1 [Example 28, (S)-[1-(5-Bromopyrimidin-2-yl)-pyrrolidin-3-yl]-(2,4-dichlorobenzyl)-amine] | 3

same assay, conditions: p.o. (oral gavage), 60 min before trigeminal ganglion stimulation; dose that gives an extravasation ratio of approximately 1

Row | Structure (SMILES) | ID100 (μg/mL) p.o. [µg/mL]
14 | Clc1ccc(CN[C@H]2CCN(c3ncc(Br)cn3)C2)c(Cl)c1 [Example 28, (S)-[1-(5-Bromopyrimidin-2-yl)-pyrrolidin-3-yl]-(2,4-dichlorobenzyl)-amine] | 3
